Drawing on the NIST ThermoML archive (doi:10.1016/j.jct.2004.05.006), this text covers mass density and excess molar enthalpy for five molecules.

± gives the expanded uncertainty stated by the source.

The conditions of data set [1]: 298.15 K; 101.33 kPa; Liquid.
The nature of data set [2]: excess molar enthalpy (molar enthalpy of mixing); xn = mol fraction of the nth substance listed. Particulars: 298.15 K, 101.3 kPa, Liquid, Flow calorimetry.

For `COC(C)(C)C` [2-methoxy-2-methylpropane], the mass density in data set [1] turned out to be 735.69 ± 0.73 kg/m3.

Take `CCCC(C)C` [2-methylpentane]: the mass density in data set [1] was 649.78 ± 0.94 kg/m3.

As for `CCCC(C)C` [2-methylpentane] + COC(C)(C)C, the excess molar enthalpy in data set [2] (x2 = 0.0532) was 0.00897 ± 0.000335 kcal/mol; in data set [2] (x2 = 0.1063) it was 0.0214 ± 0.000454 kcal/mol; in data set [2] (x2 = 0.1589), 0.0336 ± 0.000574 kcal/mol; in data set [2] (x2 = 0.2113), 0.0437 ± 0.000669 kcal/mol; in data set [2] (x2 = 0.2633), 0.0523 ± 0.000765 kcal/mol; in data set [2] (x2 = 0.315) it was 0.0597 ± 0.000837 kcal/mol. Also, the excess molar enthalpy in data set [2] (x2 = 0.3658) is 0.065 ± 0.000884 kcal/mol; in data set [2] (x2 = 0.4165), 0.0691 ± 0.000932 kcal/mol; in data set [2] (x2 = 0.4667) it was 0.0717 ± 0.000956 kcal/mol; in data set [2] (x2 = 0.5174) it was 0.0725 ± 0.000956 kcal/mol; in data set [2] (x2 = 0.5673) it was 0.0711 ± 0.000956 kcal/mol; in data set [2] (x2 = 0.6165) it was 0.0696 ± 0.000932 kcal/mol. Besides, the excess molar enthalpy in data set [2] (x2 = 0.6652) turned out to be 0.0659 ± 0.000908 kcal/mol; in data set [2] (x2 = 0.7143), 0.0608 ± 0.000837 kcal/mol; in data set [2] (x2 = 0.7628) it was 0.0542 ± 0.000789 kcal/mol; in data set [2] (x2 = 0.81), 0.0462 ± 0.000693 kcal/mol; in data set [2] (x2 = 0.8548), 0.0376 ± 0.000621 kcal/mol; in data set [2] (x2 = 0.906) it was 0.0257 ± 0.000502 kcal/mol. The excess molar enthalpy in data set [2] (x2 = 0.9531) amounted to 0.0136 ± 0.000382 kcal/mol.

For `CCCCCCCCCC` [decane], in data set [1], the mass density is listed as 726.31 ± 0.81 kg/m3.

On to `CCCCCCCCCCCC` [dodecane], for which the mass density in data set [1] turned out to be 745.38 ± 0.78 kg/m3.
